Experimental data taken from patent US20200071357A1, “ANTIMICROBIAL PEPTIDES” (UNIVERSITETET I TROMSØ - NORGES ARKTISKE UNIVERSITET, priority 2016, published 2020).
Where two headings read alike, the source gives them in different places. Where no end group is shown, it is not given here.

What was measured:
Type in all cases: cell-based
[1] = system: Corynebacterium glutamicum (Cg, ATCC 13032)
Description: (§1) The peptides were screened for antibacterial activity against two strains of Gram-positive and two strains of Gram-negative bacteria; Corynebacterium glutamicum (Cg, ATCC 13032), Staphylococcus aureus (Sa, ATCC 9144), Pseudomonas aeruginosa (Pa, ATCC 27853) and Escherichia coli (Ec, ATCC 25922).
(§2) Cultures stored at −80° C. in glycerol were transferred to Müller-Hinton plates (MH, Difco, Lawrence, Kans., USA) and incubated for 24 h at 35° C. A few colonies of each bacterial strain were transferred to 5 ml liquid MH medium and left shaking at room temperature overnight at 600 rpm. Cultures of actively growing bacteria (20 μl) were inoculated in 5 ml MH medium and left shaking for 2 h at room temperature. The antibacterial assays were performed as previously described by Sperstad, S. V., et al. ((2009) Mol. Immunol. 46, 2604-2612) with the following exception: bacterial cultures were diluted with medium to 2.5-3×10^4 bacteria/ml concentrations. An aliquot of 50 μl (1250-1500 bacterial cells) was added to each well in 96-well Nunclon™ microtiter plates (Nagle Nunc Int., Denmark) preloaded with peptide solution (50 μl).
(§3) The microtiter plates were incubated for 24 h at 35° C. with optical density recorded every hour using an Envision 2103 multilabel reader, controlled by a Wallac Envision manager (PerkinElmer, Conn., USA). Minimum inhibitory concentration (MIC) was defined as a sample showing complete inhibition (as measured by optical density at 595 nm) compared to the negative (growth) controls, consisting of bacteria and water. Oxytetracycline (20 μM) served as a positive (inhibition) control.
(§4) The synthetic peptides were tested for antibacterial activity in concentrations ranging from 200 to 0.1 μM in two-fold dilutions. All tests were performed in triplicates.

[2] = system: Staphylococcus aureus (Sa, ATCC 9144)
Description: as §1, §2, §3, §4

[3] = system: Rhodotorula sp.; conditions: 24 h
Description: (§5) The synthetic peptides were also screened for antifungal activity against Candida albicans (ATCC 10231), Aureobasidium pullulans and Rhodotorula sp. (the last two were obtained from Professor Arne Tronsmo, The Norwegian University of Life Sciences, As, Norway). The antifungal assay was performed as previously described (Sperstad, S. V., et al. (2009) Dev. Comp. Immunol. 33, 583-591). Briefly, fungal spores were dissolved in potato dextrose broth (Difco, Lawrence, Kans., USA) to a concentration of 4×10^5 spores/ml. The spores (50 μl) were inoculated on 96-well Nunclon™ microtiter plates containing the synthetic peptides (50 μl) dissolved in MQ-H2O. […] The negative (growth) control consisted of medium and fungal solution. The peptides were tested for activity in concentrations ranging from 100 to 0.1 μM in two-fold serial dilutions. All tests were performed in triplicates.

[4] = system: Aureobasidium pullulans; conditions: 24 h
Description: as §5

[5] = system: Candida albicans (ATCC 10231)
Description: as §5

[6] = system: human red blood cells; assay: Haemolytic assay; conditions: human red blood cells, one hour at 37° C.; for Haemolysis (%) 25 μM: peptide 25 μM; for Haemolysis (%) 200 μM: peptide 200 μM
Description: Selected synthesised peptide analogues were also screened for haemolytic activity using human red blood cells as described previously (Sperstad, S. V., et al. (2009) Dev. Comp. Immunol. 33, 583-591). The assay was performed on 96-well U-shaped microtiter plates (Nagle Nunc) with 50 μl peptide sample, 40 μl phosphate-buffered saline (PBS) and 10 μl red blood cells. After one hour of incubation at 37° C. in a shaker, the plate was centrifuged at 200 g for 5 min and the supernatants (60 μl) were carefully transferred to a new flat-bottomed polycarbonate microtiter plate (Nagle Nunc) and the release of haemoglobin (absorbance at 550 nm) was measured on a Synergy H1 multimode reader (BioTek, Vt., USA). Cell suspension added 0.05% Triton X-100 (Sigma-Aldrich, Mo., USA) in PBS served as positive (100% haemolysis) control and cell suspension added PBS served as negative (0% haemolysis, blank) control. The percent haemolysis was calculated using the formula [(Asample-Abaseline)/(Atriton-Abaseline)]×100. The cytotoxic peptide melittin (Sigma-Aldrich) was used as a positive control peptide and for comparison. The experiment was performed in triplicates with peptide concentrations ranging from 200 μM to 1.56 μM in two-fold dilutions.

[7] = system: Pseudomonas aeruginosa (Pa, ATCC 27853)
Description: as §1, §2, §3, §4

[8] = system: Escherichia coli (Ec, ATCC 25922)
Description: as §1, §2, §3, §4

[9] = 24 h at 35° C., complete inhibition by OD 595 nm

| Substance | MIC (μM) Cg ([1]; ATCC 13032, 24 h) [µM] | MIC (μM) Sa ([2]; ATCC 9144, 24 h) [µM] | MIC (μM) Rhodotorula sp. [3] [µM] | MIC (μM) A. pullulans [4] [µM] | MIC (μM) C. albicans ([5]; ATCC 10231, 24 h) [µM] | Haemolysis (%) 25 μM [6] [%] | Haemolysis (%) 200 μM [6] [%] | MIC (μM) Pa ([7]; ATCC 27853, 24 h) [µM] | MIC (μM) Ec ([8]; ATCC 25922, 24 h) [µM] | MIC (μM) Pa [7, 9] [µM] | MIC (μM) Cg [1, 9] [µM] | MIC (μM) Ec [8, 9] [µM] | MIC (μM) Sa [2, 9] [µM] | MIC (μM) C. albicans ([5]; no visible growth after 24 h at room temperature) [µM] | Haemolysis (%) 200 μM ([6]; listed as full HC) [%] |
| --- | --- | --- | --- | --- | --- | --- | --- | --- | --- | --- | --- | --- | --- | --- | --- |
| GAWRRTVAKVRK-NH2 [Peptide W2A, GAWRRTVAKVRK-NH2] | 3.1 | 100 | 25 | 50 | 50 | 0.0 | 0.0 |  |  |  |  |  |  |  |  |
| GWWRRTVAKVRNAGRK-NH2 [HC(1-16)A8, GWWRRTVAKVRNAGRK] | 0.8 | 12.5 |  |  |  | 0.0 | 5.0 | 3.1 | 3.1 |  |  |  |  |  |  |
| GWWRRTVDKVRNAGRK [HC(1-16), GWWRRTVDKVRNAGRK] | 0.8 | 200 | 25 | 50 | 100 | 0.0 | 0.0 | 12.5 | 6.3 |  |  |  |  |  |  |
| GWWRRWVAKVRK-NH2 [HC(1-12)W6A8K12, GWWRRWVAKVRK-NH2] |  |  |  | 50 |  |  |  |  |  | 1.6 | 0.8 | 1.6 | 3.1 | 12.5 |  |
| KWWRRWVKKVRK-NH2 [HC(1-12)K1W6K8K12, KWWRRWVKKVRK-NH2] | 0.4 | 6.3 | 3.1 | 25 | 6.3 |  |  | 1.6 | 3.1 |  |  |  |  |  |  |
| AWWRRTVAKVRK-NH2 [Peptide G1A, AWWRRTVAKVRK-NH2] | 0.8 |  | 12.5 | 50 | 25 | 0.0 | 1.6 | 6.3 | 12.5 |  |  |  |  |  |  |
| RWWRRWVRRVRR-NH2 [HC(1-12)R1W6R8,9,12-NH2, RWWRRWVRRVRR-NH2] | 0.8 | 3.1 | 3.1 | 25 | 12.5 |  |  | 3.1 | 3.1 |  |  |  |  |  |  |
| GWWRRWVKKVRK-NH2 [HC(1-12)W6K8K12, GWWRRWVKKVRK-NH2] | 1.6 | 3.1 | 6.3 | 12.5 | 25 |  |  | 3.1 | 6.3 |  |  |  |  |  |  |
| GWWRATVAKVRK-NH2 [Peptide R5A, GWWRATVAKVRK-NH2] | 0.8 | 100 | 12.5 | 25 | 25 | 0.0 | 0.0 | 25 | 6.3 |  |  |  |  |  |  |
| GWWRRAVAKVRK-NH2 [Peptide T6A, GWWRRAVAKVRK-NH2] | 1.6 |  | 12.5 | 25 | 25 | 0.9 | 4.1 |  |  |  |  |  |  |  |  |
| GWWRRKVAKVRK-NH2 [HC(1-12)K6A8K12, GWWRRKVAKVRK-NH2] | 1.6 | 12.5 | 25 | 25 | 50 |  |  | 50 | 12.5 |  |  |  |  |  |  |
| GWWARTVAKVRK-NH2 [Peptide R4A, GWWARTVAKVRK-NH2] | 1.6 | 50 | 50 | 50 | 25 | 0.0 | 3.6 | 12.5 | 6.3 |  |  |  |  |  |  |
| GWWRRTVAAVRK-NH2 [Peptide K9A, GWWRRTVAAVRK-NH2] | 1.6 | 100 | 12.5 | 25 | 25 | 0.0 | 5.1 |  |  |  |  |  |  |  |  |
| GWARRTVAKVRK-NH2 [Peptide W3A, GWARRTVAKVRK-NH2] | 0.8 |  | 25 | 50 | 50 | 0.0 | 0.0 |  |  |  |  |  |  |  |  |
| GWWRRTVDKVRNAGRKVAGFASKACGALGH [HC, reference compound] | 0.4 | 3.1 | 12.5 | 12.5 | 100 | 13.5 | 74.6 | 1.6 | 0.8 |  |  |  |  |  | 75 |
| GWWRRTVAKVAK-NH2 [Peptide R11A, GWWRRTVAKVAK-NH2] | 1.6 | 100 | 12.5 | 50 | 25 | 0.0 | 0.0 | 12.5 | 12.5 |  |  |  |  |  |  |
| WWRRTVAKVRNAGRK-NH2 [HC(2-16)A7, WWRRTVAKVRNAGRK] | 0.4 | 12.5 |  |  |  |  |  | 25 | 6.3 |  |  |  |  |  |  |
| GWWRRTVAKVRA-NH2 [Peptide K12A, GWWRRTVAKVRA-NH2] | 0.8 | 50 | 12.5 | 50 | 25 | 0.0 | 0.0 |  |  |  |  |  |  |  |  |
| GWARRWVAKVRK-NH2 [HC(1-12)A3W6A8K12, GWARRWVAKVRK-NH2] | 0.8 | 50 | 6.3 | 25 | 6.3 |  |  | 12.5 | 6.3 |  |  |  |  |  |  |
| H-GWWRRTVAKVRN-NH2 [HC(1-12)A8, GWWRRTVAKVRN] | 1.6 | 50 |  |  |  |  |  | 6.3 | 6.3 |  |  |  |  |  |  |
| H-GWWRRTVRK-NH2 [HC(1-9)R8, GWWRRTVRK] | 3.1 | 100 |  |  |  |  |  | 25 | 50 |  |  |  |  |  |  |
